This note sets out measurements from patent US20240239772A1, “PROTEASE INHIBITORS AND METHODS OF USE” (The Cleveland Clinic Foundation, priority 2021, published 2024).

For assay [1], the system named is SARS-CoV-2. As to the kind of experiment: microbe, parasite or virus in culture. Format: cell-based.
Assay [2] has as its system SARS-CoV-2. As to the kind of experiment: microbe, parasite or virus in culture. Format: cell-based. Conditions: read-out: CPE Inhibition Assay EC50.
Another assay deals with SARS-CoV-2 3CLpro (Severe acute respiratory syndrome coronavirus 2 (2019-nCoV) (SARS-CoV-2), UniProt P0DTD1). Kind of assay: biochemical. Format: biochemical. Conditions: read-out: SARS-CoV-2 IC50.
The target in another assay is SARS-CoV-1 3CLpro (Severe acute respiratory syndrome coronavirus (SARS-CoV), UniProt P0C6X7). Format: biochemical.
The mark [3] stands for this setting: Severe acute respiratory syndrome coronavirus 2, Vero C1008, read-out: Plaque Reduction Assay EC50.
Where [4] appears, read: Severe acute respiratory syndrome coronavirus 2, Vero C1008, 68 h.

Where two headings read alike, the source gives them in different places. Some results are limits rather than exact numbers.

The term EC50 denotes the concentration at which the effect is half-maximal. Turning to `O=C(Cn1nnc2ccccc21)N(Cc1ccsc1)c1ccc(-c2cccnc2)cc1` [Compound 17b, 2-(1H-benzo[d][1,2,3]triazol-1-yl)-N-(4-(pyridin-3-yl)phenyl)-N-(thiophen-3-ylmethyl)acetamide, reference compound], the results for the EC50 with SARS-CoV-2 [1] (setting [3]) and in the assay on SARS-CoV-2 [2] (setting [4]) were 14.6 ± 1.22 µM and 12.1 ± 0.31 µM, respectively.

A word on the IC50: it is the concentration that gives 50% inhibition. As for `O=C(Cn1nnc2ccccc21)N(Cc1ccsc1)c1ccc(-c2c[nH]cn2)cc1` [Compound 21, 2-(Benzotriazol-1-yl)-N-[4-(1H-imidazol-4-yl)phenyl]-N-(3-thienylmethyl)acetamide], the EC50 in the assay on SARS-CoV-2 [1] (setting [3]) was 1.75 ± 0.25 µM; in the assay with SARS-CoV-2 [2] (setting [4]) it was 1.74 ± 0.19 µM. For the same compound, on SARS-CoV-2 3CLpro, the IC50 is 0.06 ± 0.01 µM.

With `O=C(Cn1nnc2ccccc21)N(CC1CCOC1)c1ccc(-c2cccnc2)cc1` (centres unmarked) [Compound 26, 2-(1H-Benzo[d][1,2,3]triazol-1-yl)-N-(4-(pyridin-3-yl)phenyl)-N-((tetrahydrofuran-3-yl)methyl)acetamide], the results for the IC50 on SARS-CoV-2 3CLpro and at SARS-CoV-1 3CLpro were 23 ± 1.38 µM and 20.5 ± 1.59 µM, respectively.

Consider `O=C(Cn1nnc2ccccc21)N(Cc1cccc(Cl)c1)c1ccc(-c2cccnc2)cc1` [Compound 28, 2-(Benzotriazol-1-yl)-N-[(3-chlorophenyl)methyl]-N-[4-(3-pyridyl)phenyl]acetamide], for which the results for the half-maximal effective concentration (EC50) with SARS-CoV-2 [1] (setting [3]) and in the assay on SARS-CoV-2 [2] (setting [4]) were 11.1 ± 0.37 µM and 7.61 ± 1.43 µM, respectively. In addition, at SARS-CoV-2 3CLpro, the IC50 is 0.39 ± 0.11 µM.

For the compound `O=C(Cn1nnc2ccccc21)N(Cc1ccc(Cl)c(Cl)c1)c1ccc(-c2cccnc2)cc1` [Compound 30, 2-(Benzotriazol-1-yl)-N-[(3,4-dichlorophenyl)methyl]-N-[4-(3-pyridyl)phenyl]acetamide], the IC50 on SARS-CoV-2 3CLpro and against SARS-CoV-1 3CLpro was above 200 µM each time.

Take `O=C(Cn1nnc2ccccc21)N(Cc1cc(F)cc(Cl)c1)c1ccc(-c2cccnc2)cc1` [Compound 31, 2-(Benzotriazol-1-yl)-N-[(3-chloro-5-fluoro-phenyl)methyl]-N-[4-(3-pyridyl)phenyl]acetamide]: the IC50 on SARS-CoV-2 3CLpro stood at 0.119 ± 0.005 µM; against SARS-CoV-1 3CLpro, 0.074 ± 0.01 µM.

Take `O=C(Cn1nnc2ccccc21)N(Cc1cccc(Cl)c1)c1ccc(-c2ccc[nH]c2=O)cc1` [Compound 35, 2-(1H-Benzo[d][1,2,3]triazol-1-yl)-N-(3-chlorobenzyl)-N-(4-(2-oxo-1,2-dihydropyridin-3-yl)phenyl)acetamide]: the EC50 stood at 16.7 ± 2.44 µM with SARS-CoV-2 [1] (Severe acute respiratory syndrome coronavirus 2, Vero C1008, Vero E6 ACE2 cells, approximately 50 PFUs SARS-CoV-2, read-out: Plaque Reduction Assay EC50) and 8.77 ± 1.14 µM in the assay on SARS-CoV-2 [2] (setting [4]). In addition, on SARS-CoV-2 3CLpro, the IC50 turned out to be 0.746 ± 0.098 µM.

For the compound `O=C(Cn1nnc2ccccc21)N(Cc1cccc(Cl)c1)c1ccc(-c2cn[nH]c2)cc1` [Compound 36, N-(4-(1H-Pyrazol-4-yl)phenyl)-2-(1H-benzo[d][1,2,3]triazol-1-yl)-N-(3-chlorobenzyl)acetamide], the EC50 with SARS-CoV-2 [1] (setting [3]) was 3.31 ± 0.1 µM; in the assay with SARS-CoV-2 [2] (setting [4]), 1.98 ± 0.24 µM. The IC50 at SARS-CoV-2 3CLpro is 0.27 ± 0.067 µM.

With `COc1cc(N(Cc2cccc(Cl)c2)C(=O)Cn2nnc3ccccc32)ccc1-c1cn[nH]c1` [Compound 37, 2-(Benzotriazol-1-yl)-N-[(3-chlorophenyl)methyl]-N-[3-methoxy-4-(1H-pyrazol-4-yl)phenyl]acetamide], the results for the EC50 in the assay on SARS-CoV-2 [1] (setting [3]) and in the assay on SARS-CoV-2 [2] (setting [4]) were 3.24 ± 0.27 µM and 2.93 ± 0.28 µM, respectively. Moreover, the IC50 at SARS-CoV-2 3CLpro was 0.328 ± 0.027 µM.

Take `COc1cc(-c2cn[nH]c2)ccc1N(Cc1cccc(Cl)c1)C(=O)Cn1nnc2ccccc21` [Compound 38, 2-(Benzotriazol-1-yl)-N-[(3-chlorophenyl)methyl]-N-[2-methoxy-4-(1H-pyrazol-4-yl)phenyl]acetamide]: the EC50 in the assay with SARS-CoV-2 [1] (setting [3]) was 2.01 ± 0.49 µM; in the assay on SARS-CoV-2 [2] (Severe acute respiratory syndrome coronavirus 2, Vero C1008, Vero E6 ACE2 cells, 100 TCID50 SARS-CoV-2, 68 h after infection) it was 2.3 ± 0.33 µM. The IC50 at SARS-CoV-2 3CLpro is 0.197 ± 0.05 µM.

With `O=C(Cn1nnc2ccccc21)N(Cc1cccc(Cl)c1)c1ccc(-c2cn[nH]c2)nc1` [Compound 39, 2-(Benzotriazol-1-yl)-N-[(3-chlorophenyl)methyl]-N-[6-(1H-pyrazol-4-yl)-3-pyridyl]acetamide], the EC50 was determined as 4.65 ± 0.11 µM in the assay with SARS-CoV-2 [1] (setting [3]) and 3.81 ± 0.18 µM in the assay with SARS-CoV-2 [2] (setting [4]). The IC50 was determined as 0.333 ± 0.093 µM on SARS-CoV-2 3CLpro and 0.336 ± 0.065 µM at SARS-CoV-1 3CLpro.

On to `O=C(Cn1nnc2ccccc21)N(Cc1cccc(Cl)c1)c1ccc(-c2cn[nH]c2)cn1` [Compound 40, 2-(Benzotriazol-1-yl)-N-[(3-chlorophenyl)methyl]-N-[5-(1H-pyrazol-4-yl)-2-pyridyl]acetamide], for which the EC50 came to 3.39 ± 0.21 µM with SARS-CoV-2 [1] (setting [3]) and 1.91 ± 0.3 µM with SARS-CoV-2 [2] (setting [4]). Moreover, the IC50 on SARS-CoV-2 3CLpro worked out at 0.171 ± 0.029 µM; against SARS-CoV-1 3CLpro, 0.214 ± 0.063 µM.

With `COc1ccc(CN(C(=O)Cn2nnc3ccccc32)c2ccc(-c3c[nH]cn3)cc2)cc1F` [Compound 117, 2-(benzotriazol-1-yl)-N-[(3-fluoro-4-methoxy-phenyl)methyl]-N-[4-(1H-imidazol-4-yl)phenyl]acetamide], the 50% inhibitory concentration (IC50) at SARS-CoV-2 3CLpro amounted to 0.97 µM.

Turning to `O=C(Cn1nnc2ccccc21)N(Cc1cc(F)cc(F)c1)c1ccc(C2CNC2)cc1` [Compound 118, N-[4-(azetidin-3-yl)phenyl]-2-(benzotriazol-1-yl)-N-[(3,5-difluorophenyl)methyl]acetamide], the IC50 on SARS-CoV-2 3CLpro worked out at 0.078 µM.

Consider `O=C(Cn1nnc2ccccc21)N(Cc1cncc(F)c1)c1ccc(C2CNC2)cc1` [Compound 119, N-[4-(azetidin-3-yl)phenyl]-2-(benzotriazol-1-yl)-N-[(5-fluoro-3-pyridyl)methyl]acetamide], for which the IC50 at SARS-CoV-2 3CLpro worked out at 0.6 µM.

Consider `O=C(Cn1nnc2ccccc21)N(Cc1cc(F)cc(OC(F)(F)F)c1)c1ccc(-c2c[nH]cn2)cc1` [Compound 120, 2-(benzotriazol-1-yl)-N-[[3-fluoro-5-(trifluoromethoxy)phenyl]methyl]-N-[4-(1H-imidazol-4-yl)phenyl]acetamide], for which the IC50 on SARS-CoV-2 3CLpro was determined as 0.12 µM.

As to `O=C(Cn1nnc2ccccc21)N(Cc1cc(F)cc(Cl)c1)c1ccc(C2CNC2)cc1` [Compound 121, N-[4-(azetidin-3-yl)phenyl]-2-(benzotriazol-1-yl)-N-[(3-chloro-5-fluoro-phenyl)methyl]acetamide], on SARS-CoV-2 3CLpro, the IC50 worked out at 0.1 µM.

Consider `O=C(Cn1nnc2ccccc21)N(Cc1cncc(F)c1)c1ccc(C2=CCNC2)cc1` [Compound 122, 2-(benzotriazol-1-yl)-N-[4-(2,5-dihydro-1H-pyrrol-3-yl)phenyl]-N-[(5-fluoro-3-pyridyl)methyl]acetamide], for which the IC50 on SARS-CoV-2 3CLpro worked out at 1.5 µM.

Take `CC(=O)NCc1ccc(N(Cc2cc(F)cc(F)c2)C(=O)Cn2nnc3ccccc32)cc1` [Compound 123, N-[4-(acetamidomethyl)phenyl]-2-(benzotriazol-1-yl)-N-[(3,5-difluorophenyl)methyl]acetamide]: the IC50 on SARS-CoV-2 3CLpro worked out at 0.78 µM.

Consider `NCc1ccc(N(Cc2cc(F)cc(F)c2)C(=O)Cn2nnc3ccccc32)cc1` [Compound 124, N-[4-(aminomethyl)phenyl]-2-(benzotriazol-1-yl)-N-[(3,5-difluorophenyl)methyl]acetamide], for which, at SARS-CoV-2 3CLpro, the IC50 is 0.059 µM.

Turning to `O=C(Nc1ccc(N(Cc2ccsc2)C(=O)Cn2nnc3ccccc32)cc1)C1CC1` [ML300, N-(4-(2-(1H-benzo[d][1,2,3]triazol-1-yl)-N-(thiophen-3-ylmethyl)acetamido)phenyl)cyclopropanecarboxamide, reference compound], the EC50 was 28.2 ± 1.3 µM in the assay with SARS-CoV-2 [1] (setting [3]) and 19.9 ± 6.32 µM with SARS-CoV-2 [2] (setting [4]). In addition, at SARS-CoV-2 3CLpro, the IC50 is 4.99 ± 0.62 µM.

For the compound `CCC(CC)COC(=O)[C@H](C)N[P@](=O)(OC[C@H]1O[C@@](C#N)(c2ccc3c(N)ncnn23)[C@H](O)[C@@H]1O)Oc1ccccc1` [Remdesivir, reference compound], the results for the EC50 in the assay on SARS-CoV-2 [1] (setting [3]) and in the assay with SARS-CoV-2 [2] (setting [4]) were 0.43 ± 0.06 µM and 0.34 ± 0.01 µM, respectively.
